Results as given in article PMC11267547, “Advancing drug discovery through assay development: a survey of tool compounds within the human solute carrier superfamily” (Frontiers in Pharmacology, 2024).
Where two headings read alike, the source gives them in different places.

Experiments:
Format in all cases: cell-based
NHE1 (SLC9A1) = biological target: T1, NHE1 (SLC9A1) (Homo sapiens, UniProt P19634); assay: BCECF-AM pH recovery assay, MDA-MB-468 breast cancer cells
T1 construct: endogenous in cells; host or cells: MDA-MB-468
Procedure: The cells were seeded (6.000 cells/well) in poly-d-lysine-coated 384-well plates (black, transparent bottom) and grown for 24 h at 37°C and 5% CO2. The media was removed, and the cells were washed once in sodium-free loading buffer (115 mM choline chloride, 20 mM NH4Cl, 5 mM KCl, 1 mM CaCl2, 1 mM MgCl2, 20 mM HEPES pH 7.4, and 5 mM glucose) and subsequently incubated for 30–45 min at 37°C in a loading buffer containing 10 µM 2′,7′-Bis(2-carboxyethyl)-5(6)-carboxyfluorescein tetrakis (acetoxymethyl) ester (BCECF-AM). The loading buffer was removed, and the cells were washed twice with NH4Cl-free acidification buffer (133.8 mM choline chloride, 4.7 mM KCl, 1.25 mM CaCl2, 1.25 mM MgCl2, 0.97 mM K2HPO4, 0.23 mM KH2PO4, 5 mM HEPES pH 7.4, and 5 mM glucose) using a plate dispenser (Multidrop Combi+, Thermo Fisher Scientific, US). The cells were incubated 5 min with 15 µL compounds at 2× concentration in acidification buffer. The assay readout was acquired using a plate reader (POLARstar Omega, BMG LABTECH, Germany) set to measure Ex./Em. at 440 nm/520 nm and 485 nm/520 nm over a period of 15 min. A baseline read was recorded before the plate readers automated dispensing of 15 µL recovery buffer (133.8 mM NaCl, 4.7 mM KCl, 1.25 mM CaCl2, 1.25 mM MgCl2, 0.97 mM Na2HPO4, 0.23 mM NaH2PO4, 5 mM HEPES pH 7.4, and 5 mM glucose), which initializes cellular pH recovery. The mean baseline measurement was subtracted from the intensities of each well, and a fluorescence intensity ratio for excitations at 485 nm and 440 nm was calculated. The data were normalized to DMSO (maximum) and no recovery controls (minimum). The data were analyzed using R, and the dr4pl package was used to fit dose–response data to the four-parameter logistic model.

SLC6A9 = biological target: T2, SLC6A9 (Homo sapiens, UniProt P48067); assay: RESOLUTE assay on SLC6A9
T2 construct: expressed in transfected cells; host or cells: Jump In T-REx HEK293 (general cell-line paragraph)
T2 sequence (P48067 1-706): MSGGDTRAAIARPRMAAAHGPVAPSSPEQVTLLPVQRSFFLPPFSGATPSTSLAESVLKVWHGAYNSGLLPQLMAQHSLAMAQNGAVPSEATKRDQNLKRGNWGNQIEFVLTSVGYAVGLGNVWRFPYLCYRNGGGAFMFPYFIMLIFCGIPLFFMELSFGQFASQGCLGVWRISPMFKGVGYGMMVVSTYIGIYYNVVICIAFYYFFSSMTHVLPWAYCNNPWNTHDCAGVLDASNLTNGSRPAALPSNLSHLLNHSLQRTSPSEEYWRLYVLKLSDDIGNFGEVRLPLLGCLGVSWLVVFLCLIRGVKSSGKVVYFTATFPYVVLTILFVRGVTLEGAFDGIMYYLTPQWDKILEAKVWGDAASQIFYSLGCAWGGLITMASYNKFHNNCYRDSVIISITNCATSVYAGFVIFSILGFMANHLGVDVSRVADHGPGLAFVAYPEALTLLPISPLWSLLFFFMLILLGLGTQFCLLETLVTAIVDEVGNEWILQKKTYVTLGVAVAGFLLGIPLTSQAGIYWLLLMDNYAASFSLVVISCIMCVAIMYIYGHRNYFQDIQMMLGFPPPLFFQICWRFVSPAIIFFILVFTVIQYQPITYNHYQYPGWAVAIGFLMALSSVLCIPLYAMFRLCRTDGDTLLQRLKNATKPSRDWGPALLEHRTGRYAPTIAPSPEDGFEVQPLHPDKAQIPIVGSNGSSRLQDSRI
Procedure: FLIPR Membrane Potential Blue Dye was used to detect the compound activities for those membrane transporters that are electrogenic or whose activity is associated with changes in membrane potential, as previously described ([Jensen and BräunerOsborne, 2004]). In brief, cells are seeded at cell line-specific density in black clear-bottom poly-D-Lysine-coated 384-well plates (Greiner Bio-One) in DMEM high-glucose medium with 10% FBS, 1% P/S, and 2 mM UltraGlutamine I (25 µL/well). Furthermore, 24 h after seeding, the culture medium is removed, and the cells are loaded with 20 µL/well of 0.5 X FMP Blue Dye in assay buffer (modified Tyrode’s buffer, 130 mM NaCl, 5 mM KCl, 1 mM MgCl2, 2 mM CaCl2, 5 mM NaHCO3, and 20 mM HEPES pH 7.4). The plates are subsequently incubated for at least 30 min at room temperature in the dark. Then, 10 µL/well of test compounds and controls is added at defined concentrations (0.5% DMSO final conc.) in the FLIPR TETRA instrument (Molecular Devices), and emitted fluorescence is recorded using a λexc 510–545-nm/λem 565–625-nm filter. The dose–response curves for the 19 compounds were prepared starting from 3 µM (final top concentration), the half-log serial dilution factor. For data analysis, Genedata Screener 19.0 software was used.
The robust Z prime factor (RZ’ factor) was calculated with the following formula: RZ^′=1−3∗RSDMAX+RSDMIN/AbsMAX − MIN, where the RZ’ factor is based on the same formula as the Z′ factor ([Zhang et al., 1999]) but standard deviations and means are replaced by the robust standard deviations and medians, respectively. Curve fitting profiles were performed on each dose–response curve with the analyzer module of Genedata Screener 19.0 on % activity.

SLC1A1 = biological target: T3, SLC1A1 (Homo sapiens, UniProt P43005); assay: Echo-MS assay, uptake of labeled glutamic acid in dox-induced HEK293–JumpIn–SLC1A1 (EAAT3) cells; design: expressed in transfected cells; host or cells: Jump In T-REx HEK293
T3 sequence (P43005 1-524): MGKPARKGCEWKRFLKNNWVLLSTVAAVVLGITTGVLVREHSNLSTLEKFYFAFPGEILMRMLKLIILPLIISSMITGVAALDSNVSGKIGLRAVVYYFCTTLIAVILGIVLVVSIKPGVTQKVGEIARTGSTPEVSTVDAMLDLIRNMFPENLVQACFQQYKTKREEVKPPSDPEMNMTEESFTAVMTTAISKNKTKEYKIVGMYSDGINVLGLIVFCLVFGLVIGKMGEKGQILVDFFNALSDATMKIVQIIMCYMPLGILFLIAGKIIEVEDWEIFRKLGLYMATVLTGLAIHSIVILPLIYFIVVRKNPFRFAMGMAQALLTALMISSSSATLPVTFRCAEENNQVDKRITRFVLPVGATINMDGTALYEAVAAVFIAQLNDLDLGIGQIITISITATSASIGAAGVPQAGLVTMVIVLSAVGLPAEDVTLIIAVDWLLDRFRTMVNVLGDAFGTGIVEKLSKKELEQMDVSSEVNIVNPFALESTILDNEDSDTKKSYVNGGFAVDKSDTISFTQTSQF
Procedure: Before the Echo-MS experiment, 15,000 cells per well were seeded into the wells of a 384-well plate (Beckman Coulter) and induced with 1 μg/μL doxycycline. […] The next day, compounds with stock solutions of 10 mM were first diluted to a final concentration of 90 µM before starting a 10-stage dilution series with a dilution factor of 1:3 with the CyBio FeliX pipetting robot. After the supernatant in the plate of the cell plate assay was discarded (BlueWasher, BlueCatBio), 10 µL of potassium/wash buffer including the compound dilution series was transferred by the pipetting robot (FeliX, CyBio), yielding a highest final concentration of 30 µM compound per well. […] After 30 min on the shaker at 500 rpm, the plates were centrifuged for 20 min at 2,000 rpm. Finally, 40 µL/well was transferred on qualified 384-well plates and then measured with Echo-MS/ADE-MS (Sciex). ADE-MS measurements were performed on an ADE-MS device (Sciex) operated with Sciex OS software (version 2.1.6.59781). […] For all samples, an ejection volume of 5 nL (2 droplets) and a repetition rate of 2.5 s/well were used. Triple Quad 6500+ was operated in a positive mode using the following settings: vaporizer temperature 450°C, spray voltage 5500 V, ion source gas 1: 90 psi, ion source gas 2: 70 psi, curtain gas 20 psi, CAD gas 9 psi, dwell time 95 m, DP 35 V, EP 10 V, CE 14 V, and CXP 18 V. Data were processed with Sciex OS and further processed with Genedata Screener (version 19.0.9-Standard). Transporter inhibition by the compounds was tracked by analyzing the MS signal area values of uptaken labeled glutamic acid into the cell. The signal ratio of the reaction product to the respective standard was calculated to diminish variations ascribed to the sample preparation procedure or the MS readout. Average control values were calculated and set to 100% activity (high controls) and 0% activity (low controls), while the response values of compound-containing wells were normalized against the controls and expressed as the percentage of control (PoC).

[1] = BCECF, read-out: pIC50 (act), SLC9A1 (converted)
[2] = target SLC6A9, Flipr Membrane Potential-Blue-Dye, read-out: pIC50 (act) (converted)
[3] = target SLC1A1, assay EchoMS, read-out: pIC50 (act) (converted)
[4] = dox-induced HEK293–JumpIn–SLC1A1 cells, top conc. 30 µM, read-out: pIC50, SLC1A1, EchoMS (converted)

T1 sequence (P19634 whole entry): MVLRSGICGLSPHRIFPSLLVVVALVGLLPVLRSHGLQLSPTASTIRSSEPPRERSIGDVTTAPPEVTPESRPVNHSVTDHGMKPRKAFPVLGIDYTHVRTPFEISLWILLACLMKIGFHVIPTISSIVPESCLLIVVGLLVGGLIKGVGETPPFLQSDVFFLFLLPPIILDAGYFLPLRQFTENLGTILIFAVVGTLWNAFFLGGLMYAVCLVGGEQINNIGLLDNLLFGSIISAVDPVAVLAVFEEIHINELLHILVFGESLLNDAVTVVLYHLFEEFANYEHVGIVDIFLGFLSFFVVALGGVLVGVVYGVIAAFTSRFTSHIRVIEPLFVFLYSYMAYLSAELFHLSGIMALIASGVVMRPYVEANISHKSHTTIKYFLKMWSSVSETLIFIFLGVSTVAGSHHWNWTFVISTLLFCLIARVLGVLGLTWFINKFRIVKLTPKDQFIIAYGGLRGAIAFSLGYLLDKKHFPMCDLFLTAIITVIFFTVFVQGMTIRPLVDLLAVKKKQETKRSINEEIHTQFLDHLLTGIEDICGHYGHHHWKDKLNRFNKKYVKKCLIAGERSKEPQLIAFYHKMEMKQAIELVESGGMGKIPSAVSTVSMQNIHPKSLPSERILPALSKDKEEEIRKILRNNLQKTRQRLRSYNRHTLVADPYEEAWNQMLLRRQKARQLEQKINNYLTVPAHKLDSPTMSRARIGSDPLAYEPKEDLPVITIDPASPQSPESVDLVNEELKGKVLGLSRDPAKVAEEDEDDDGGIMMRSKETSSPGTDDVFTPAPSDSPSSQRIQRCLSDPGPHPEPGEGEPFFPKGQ

Compound	IC50 (NHE1 (SLC9A1); [1])	IC50 (SLC6A9; [2])	IC50 (SLC1A1; [3])	IC50 (SLC1A1; [4])	IC50 (NHE1 (SLC9A1))	IC50 (SLC6A9)	IC50 (SLC1A1)
CN1C2CCC1CC(OC(c1ccccc1)c1ccccc1)C2 (stereo not drawn) [Benzotropine]	> 10 µM	> 3.16 µM	> 30 µM	–	–	–	–
Nc1nc2ccc(OC(F)(F)F)cc2s1 [Riluzole]	> 10 µM	> 3.16 µM	7.25 µM	7.94 µM	–	–	–
N[C@H](C(=O)O)[C@H](OCc1cccc(NC(=O)c2ccc(C(F)(F)F)cc2)c1)C(=O)O [TFB-TBOA]	> 10 µM	> 3.16 µM	0.436 µM	0.398 µM	–	–	–
COc1ccc(C2C(C#N)=C(N)OC3=C2C(=O)CC(c2cccc4ccccc24)C3)cc1 (stereo not drawn) [UCPH-101]	> 10 µM	> 3.16 µM	> 10 µM	–	–	–	–
COCCOc1cc(CC2CCN(CCc3ccc4c(c3)C(=O)CCO4)CC2)ccc1Br [DSP-1053]	> 10 µM	> 3.16 µM	> 30 µM	–	–	–	–
CCOC(=O)N1CCC(=C2c3ccc(Cl)cc3CCc3cccnc32)CC1 [Loratadine]	> 10 µM	> 3.16 µM	–	–	–	–	–
Cc1c(NC(=O)c2cc(C(N)=O)nc3cc(F)ccc23)c(C(F)(F)F)nn1Cc1ccc(C#N)cc1 [BAY-876]	> 10 µM	> 3.16 µM	> 30 µM	–	–	–	–
Fc1ccc(C(OCCN2CCN(CCCc3ccccc3)CC2)c2ccc(F)cc2)cc1 [Vanoxerine (GBR12909), Vanoxerine]	> 10 µM	> 3.16 µM	–	–	–	–	–
CCNC(=O)/C=C/c1cccc(Br)c1 [Cinromide]	> 10 µM	> 3.16 µM	> 30 µM	–	–	–	–
CC(C)[C@H]1CN[C@H](C(=O)O)[C@H]1CC(=O)O [Dihydrokainate]	> 10 µM	> 3.16 µM	> 10 µM	–	–	–	–
N#Cc1ccc(Nc2cnccc2SCc2ccccc2C(=O)O)c2ccccc12 [KPH2f]	> 10 µM	> 3.16 µM	0.894 µM	1 µM	–	–	–
NC(C(=O)O)C(OCc1ccccc1)C(=O)O (stereo not drawn) [Threo-beta-benzyloxyaspartic acid, Threo-beta-Benzyloxyaspartic acid]	> 10 µM	> 3.16 µM	> 10 µM	–	–	–	–
C=C(C)[C@H]1CN[C@H](C(=O)O)[C@H]1CC(=O)O [Kainic acid]	–	–	–	–	> 10 µM	> 3.16 µM	> 10 µM
O=S(=O)(O)c1cc(N=C=S)ccc1/C=C/c1ccc(N=C=S)cc1S(=O)(=O)O [DIDS]	> 10 µM	> 3.16 µM	5.72 µM	6.31 µM	–	–	–
N[C@@H](CC(=O)Nc1ccc(Oc2cc(F)c(F)cc2Br)cc1)C(=O)O [WAY-213613]	> 10 µM	> 3.16 µM	3.28 µM	3.16 µM	–	–	–
Cc1ccsc1C(=CCCN1CCC[C@@H](C(=O)O)C1)c1sccc1C [Tiagabine]	> 10 µM	> 3.16 µM	> 30 µM	–	–	–	–
CC1C(C#N)=C(N)OC2=C1C(=O)CC(c1cccc3ccccc13)C2 (stereo not drawn) [UCPH-102]	> 10 µM	> 3.16 µM	> 10 µM	–	–	–	–
CNCCCN1c2ccccc2CCc2ccccc21 [Desipramine]	> 10 µM	> 3.16 µM	> 30 µM	–	–	–	–
